For one assay, the target named is MLCK2/MYLK2 (Homo sapiens, UniProt Q9H1R3). Particulars: 1 μM; Run 1, Run 2.
A further assay has as its target T1, KSR1 (Homo sapiens, UniProt Q8IVT5).
T1 sequence (Q8IVT5 1-923): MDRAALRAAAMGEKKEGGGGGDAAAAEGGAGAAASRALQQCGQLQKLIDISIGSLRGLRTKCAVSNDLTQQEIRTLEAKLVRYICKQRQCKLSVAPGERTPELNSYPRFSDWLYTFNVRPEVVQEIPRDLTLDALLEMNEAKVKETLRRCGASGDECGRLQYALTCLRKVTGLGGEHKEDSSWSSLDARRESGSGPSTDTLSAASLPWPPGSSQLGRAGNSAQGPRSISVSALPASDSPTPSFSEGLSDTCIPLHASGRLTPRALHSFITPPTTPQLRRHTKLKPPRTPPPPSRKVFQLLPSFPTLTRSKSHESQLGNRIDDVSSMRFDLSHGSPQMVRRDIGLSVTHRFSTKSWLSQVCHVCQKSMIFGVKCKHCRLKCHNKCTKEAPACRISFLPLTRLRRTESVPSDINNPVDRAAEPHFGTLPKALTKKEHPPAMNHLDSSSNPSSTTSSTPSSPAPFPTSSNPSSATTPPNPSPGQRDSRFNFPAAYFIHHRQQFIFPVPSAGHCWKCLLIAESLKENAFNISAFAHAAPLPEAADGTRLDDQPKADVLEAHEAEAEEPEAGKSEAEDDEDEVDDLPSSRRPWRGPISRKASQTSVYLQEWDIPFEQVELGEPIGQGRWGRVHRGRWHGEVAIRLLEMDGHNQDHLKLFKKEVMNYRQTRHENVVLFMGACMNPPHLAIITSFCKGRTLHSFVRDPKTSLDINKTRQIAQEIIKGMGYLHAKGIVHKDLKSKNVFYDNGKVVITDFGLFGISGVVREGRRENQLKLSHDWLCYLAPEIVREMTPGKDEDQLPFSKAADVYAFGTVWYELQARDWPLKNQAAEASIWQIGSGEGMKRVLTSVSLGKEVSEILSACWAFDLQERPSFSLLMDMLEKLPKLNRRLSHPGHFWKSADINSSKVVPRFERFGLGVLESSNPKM
As to the kind of experiment: biochemical. Particulars: read-out: % enzyme activity, 1 μM; Run 1, Run 2.

Another assay has as its target TTBK2 (Homo sapiens, UniProt Q6IQ55). As to the kind of experiment: biochemical. The following applies: read-out: % enzyme activity, 1 μM; Run 1, Run 2.
The target of another assay is CAMK2a (Homo sapiens, UniProt Q9UQM7). Particulars: 1 μM; Run 1, Run 2.
Chain of CAMK2a (Q9UQM7 whole entry): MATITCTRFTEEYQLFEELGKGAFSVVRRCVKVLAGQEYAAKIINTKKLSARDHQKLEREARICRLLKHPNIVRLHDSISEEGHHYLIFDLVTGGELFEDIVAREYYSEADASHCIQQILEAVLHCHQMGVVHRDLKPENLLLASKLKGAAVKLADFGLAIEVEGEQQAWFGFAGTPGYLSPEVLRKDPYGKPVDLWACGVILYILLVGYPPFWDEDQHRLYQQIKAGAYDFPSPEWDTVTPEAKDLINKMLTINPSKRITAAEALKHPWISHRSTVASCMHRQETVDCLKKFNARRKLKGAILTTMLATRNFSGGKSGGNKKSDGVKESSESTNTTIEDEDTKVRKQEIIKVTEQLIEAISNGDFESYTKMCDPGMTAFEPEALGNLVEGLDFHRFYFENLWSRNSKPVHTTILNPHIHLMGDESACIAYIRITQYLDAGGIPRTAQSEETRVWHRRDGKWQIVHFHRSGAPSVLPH
The target of another assay is TYK1/LTK (Homo sapiens, UniProt P29376). Particulars: 1 μM; Run 1, Run 2.
Chain of TYK1/LTK (P29376 17-864): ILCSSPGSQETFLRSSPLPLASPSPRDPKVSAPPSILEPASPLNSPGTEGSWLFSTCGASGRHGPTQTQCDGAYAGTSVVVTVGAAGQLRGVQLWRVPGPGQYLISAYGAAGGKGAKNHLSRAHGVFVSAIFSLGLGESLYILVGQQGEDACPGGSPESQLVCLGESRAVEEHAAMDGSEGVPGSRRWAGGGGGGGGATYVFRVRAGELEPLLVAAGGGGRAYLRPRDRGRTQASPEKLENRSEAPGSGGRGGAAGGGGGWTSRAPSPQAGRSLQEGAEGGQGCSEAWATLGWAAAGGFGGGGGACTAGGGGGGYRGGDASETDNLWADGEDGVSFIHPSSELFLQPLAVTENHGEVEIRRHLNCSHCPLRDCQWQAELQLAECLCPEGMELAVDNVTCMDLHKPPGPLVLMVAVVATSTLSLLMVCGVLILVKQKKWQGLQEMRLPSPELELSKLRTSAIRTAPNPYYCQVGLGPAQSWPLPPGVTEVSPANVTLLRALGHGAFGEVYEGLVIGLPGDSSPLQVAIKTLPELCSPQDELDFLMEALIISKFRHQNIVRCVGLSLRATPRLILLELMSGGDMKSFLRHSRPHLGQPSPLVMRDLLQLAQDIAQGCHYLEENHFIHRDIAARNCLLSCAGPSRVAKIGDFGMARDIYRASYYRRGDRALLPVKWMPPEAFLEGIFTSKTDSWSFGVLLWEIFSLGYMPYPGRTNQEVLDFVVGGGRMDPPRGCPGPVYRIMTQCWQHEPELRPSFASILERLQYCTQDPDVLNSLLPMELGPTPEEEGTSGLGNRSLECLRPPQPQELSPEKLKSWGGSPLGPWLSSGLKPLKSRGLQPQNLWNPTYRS
Another assay has as its target ERBB2/HER2 (Homo sapiens, UniProt P04626). Put plainly: biochemical. Particulars: read-out: % enzyme activity, 1 μM; Run 1, Run 2.
Another assay concerns the target PKCg (Homo sapiens, UniProt P05129). The following applies: 1 μM; Run 1, Run 2.
The target in the next assay is T2, TNK1 (Homo sapiens, UniProt Q13470).
T2 sequence (Q13470 1-666): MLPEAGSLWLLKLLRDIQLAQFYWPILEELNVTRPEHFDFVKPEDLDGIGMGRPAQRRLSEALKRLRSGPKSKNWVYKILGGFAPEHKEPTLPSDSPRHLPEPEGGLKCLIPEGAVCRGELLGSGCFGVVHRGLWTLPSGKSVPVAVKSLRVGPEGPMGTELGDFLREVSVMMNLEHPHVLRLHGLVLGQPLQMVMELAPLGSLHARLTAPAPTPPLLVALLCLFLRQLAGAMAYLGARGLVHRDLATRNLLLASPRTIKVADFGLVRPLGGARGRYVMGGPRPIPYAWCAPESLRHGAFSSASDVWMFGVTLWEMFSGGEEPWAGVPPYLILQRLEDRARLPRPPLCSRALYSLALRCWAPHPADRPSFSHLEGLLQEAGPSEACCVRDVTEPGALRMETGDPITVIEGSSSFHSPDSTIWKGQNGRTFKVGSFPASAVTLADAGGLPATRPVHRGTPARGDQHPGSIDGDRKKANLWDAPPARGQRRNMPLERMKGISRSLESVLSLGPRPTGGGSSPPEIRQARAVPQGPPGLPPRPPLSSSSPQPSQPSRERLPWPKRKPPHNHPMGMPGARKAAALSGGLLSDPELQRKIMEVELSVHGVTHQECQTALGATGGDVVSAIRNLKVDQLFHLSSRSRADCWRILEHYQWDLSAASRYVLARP
As to the kind of experiment: biochemical. The following applies: read-out: % enzyme activity, 1 μM; Run 1, Run 2.

A further assay concerns the target T3, TSSK2 (Homo sapiens, UniProt Q96PF2).
T3 sequence (Q96PF2 1-358): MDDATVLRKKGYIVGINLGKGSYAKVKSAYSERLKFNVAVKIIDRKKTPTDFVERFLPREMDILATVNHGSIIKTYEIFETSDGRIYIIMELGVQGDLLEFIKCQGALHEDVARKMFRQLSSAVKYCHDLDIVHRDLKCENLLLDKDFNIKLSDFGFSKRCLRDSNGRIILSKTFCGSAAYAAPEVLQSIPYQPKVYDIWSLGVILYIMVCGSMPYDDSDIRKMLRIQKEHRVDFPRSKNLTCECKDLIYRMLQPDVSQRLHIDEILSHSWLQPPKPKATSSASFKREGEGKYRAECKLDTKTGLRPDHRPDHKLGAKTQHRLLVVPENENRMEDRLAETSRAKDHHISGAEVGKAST
The following applies: 1 μM; Run 1, Run 2.

In a further assay the target is T4, PKMYT1 (Homo sapiens, UniProt Q99640).
T4 sequence (Q99640 1-499): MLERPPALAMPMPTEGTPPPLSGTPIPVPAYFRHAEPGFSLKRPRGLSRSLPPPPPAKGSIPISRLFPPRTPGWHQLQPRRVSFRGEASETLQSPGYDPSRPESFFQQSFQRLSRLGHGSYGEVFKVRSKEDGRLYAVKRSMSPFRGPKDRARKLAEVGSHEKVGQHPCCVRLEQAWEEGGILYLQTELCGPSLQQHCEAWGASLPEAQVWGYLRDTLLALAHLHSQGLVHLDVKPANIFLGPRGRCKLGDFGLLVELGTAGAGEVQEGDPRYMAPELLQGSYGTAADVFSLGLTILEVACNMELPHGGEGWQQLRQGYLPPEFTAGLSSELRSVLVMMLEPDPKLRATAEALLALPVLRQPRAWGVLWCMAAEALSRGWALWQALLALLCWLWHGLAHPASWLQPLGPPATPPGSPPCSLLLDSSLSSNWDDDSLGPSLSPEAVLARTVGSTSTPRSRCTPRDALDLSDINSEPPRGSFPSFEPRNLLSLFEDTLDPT
As to the kind of experiment: biochemical. The following applies: read-out: % enzyme activity, 1 μM; Run 1, Run 2.

Each structure is given as a SMILES string.

Chain of TTBK2 (Q6IQ55 whole entry): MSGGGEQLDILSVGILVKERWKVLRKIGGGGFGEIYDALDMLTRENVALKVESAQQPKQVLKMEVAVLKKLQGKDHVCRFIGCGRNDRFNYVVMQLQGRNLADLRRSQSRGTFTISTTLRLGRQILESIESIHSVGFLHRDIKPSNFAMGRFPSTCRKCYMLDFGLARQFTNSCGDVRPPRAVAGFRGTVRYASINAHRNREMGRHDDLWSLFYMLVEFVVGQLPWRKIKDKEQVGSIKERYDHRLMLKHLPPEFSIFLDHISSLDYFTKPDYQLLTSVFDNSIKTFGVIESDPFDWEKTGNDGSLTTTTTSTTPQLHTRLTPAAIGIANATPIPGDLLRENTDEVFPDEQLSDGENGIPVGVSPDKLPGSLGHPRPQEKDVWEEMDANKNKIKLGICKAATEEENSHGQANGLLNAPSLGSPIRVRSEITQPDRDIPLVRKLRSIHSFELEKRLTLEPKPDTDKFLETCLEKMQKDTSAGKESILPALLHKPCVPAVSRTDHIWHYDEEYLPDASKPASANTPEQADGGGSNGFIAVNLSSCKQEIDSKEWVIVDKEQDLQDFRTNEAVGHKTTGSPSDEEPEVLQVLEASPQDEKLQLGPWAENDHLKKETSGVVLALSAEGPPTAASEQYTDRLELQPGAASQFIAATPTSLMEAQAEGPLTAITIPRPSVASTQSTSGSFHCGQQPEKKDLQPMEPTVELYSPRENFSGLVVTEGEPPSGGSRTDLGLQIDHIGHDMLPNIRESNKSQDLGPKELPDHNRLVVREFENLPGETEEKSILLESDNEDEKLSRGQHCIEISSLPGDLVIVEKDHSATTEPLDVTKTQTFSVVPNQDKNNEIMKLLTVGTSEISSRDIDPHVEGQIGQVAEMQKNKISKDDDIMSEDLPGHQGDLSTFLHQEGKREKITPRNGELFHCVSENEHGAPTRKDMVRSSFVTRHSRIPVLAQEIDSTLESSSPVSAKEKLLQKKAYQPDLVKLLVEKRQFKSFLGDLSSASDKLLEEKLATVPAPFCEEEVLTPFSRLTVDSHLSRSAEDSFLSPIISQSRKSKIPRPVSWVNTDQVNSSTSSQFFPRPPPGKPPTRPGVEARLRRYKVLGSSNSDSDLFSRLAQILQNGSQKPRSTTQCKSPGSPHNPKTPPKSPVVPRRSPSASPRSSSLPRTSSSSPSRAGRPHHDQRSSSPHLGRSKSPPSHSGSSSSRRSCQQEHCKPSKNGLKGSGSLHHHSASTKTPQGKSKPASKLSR
Chain of MLCK2/MYLK2 (Q9H1R3 whole entry): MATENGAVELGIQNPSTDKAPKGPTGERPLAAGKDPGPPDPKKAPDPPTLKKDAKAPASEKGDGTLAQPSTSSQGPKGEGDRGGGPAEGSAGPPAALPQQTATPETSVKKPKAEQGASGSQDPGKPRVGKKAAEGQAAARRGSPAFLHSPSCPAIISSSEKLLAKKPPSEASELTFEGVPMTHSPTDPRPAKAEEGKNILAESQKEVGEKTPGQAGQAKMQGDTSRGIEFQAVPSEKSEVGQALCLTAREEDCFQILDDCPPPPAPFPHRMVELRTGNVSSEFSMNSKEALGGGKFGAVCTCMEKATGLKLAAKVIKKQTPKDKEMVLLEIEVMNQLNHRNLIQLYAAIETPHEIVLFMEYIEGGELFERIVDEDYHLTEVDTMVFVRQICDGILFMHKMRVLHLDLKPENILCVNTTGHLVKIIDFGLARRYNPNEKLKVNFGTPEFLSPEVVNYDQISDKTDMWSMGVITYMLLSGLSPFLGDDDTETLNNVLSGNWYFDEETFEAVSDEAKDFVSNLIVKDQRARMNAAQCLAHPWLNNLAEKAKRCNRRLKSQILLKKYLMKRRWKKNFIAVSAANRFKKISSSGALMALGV
Chain of ERBB2/HER2 (P04626 23-1255): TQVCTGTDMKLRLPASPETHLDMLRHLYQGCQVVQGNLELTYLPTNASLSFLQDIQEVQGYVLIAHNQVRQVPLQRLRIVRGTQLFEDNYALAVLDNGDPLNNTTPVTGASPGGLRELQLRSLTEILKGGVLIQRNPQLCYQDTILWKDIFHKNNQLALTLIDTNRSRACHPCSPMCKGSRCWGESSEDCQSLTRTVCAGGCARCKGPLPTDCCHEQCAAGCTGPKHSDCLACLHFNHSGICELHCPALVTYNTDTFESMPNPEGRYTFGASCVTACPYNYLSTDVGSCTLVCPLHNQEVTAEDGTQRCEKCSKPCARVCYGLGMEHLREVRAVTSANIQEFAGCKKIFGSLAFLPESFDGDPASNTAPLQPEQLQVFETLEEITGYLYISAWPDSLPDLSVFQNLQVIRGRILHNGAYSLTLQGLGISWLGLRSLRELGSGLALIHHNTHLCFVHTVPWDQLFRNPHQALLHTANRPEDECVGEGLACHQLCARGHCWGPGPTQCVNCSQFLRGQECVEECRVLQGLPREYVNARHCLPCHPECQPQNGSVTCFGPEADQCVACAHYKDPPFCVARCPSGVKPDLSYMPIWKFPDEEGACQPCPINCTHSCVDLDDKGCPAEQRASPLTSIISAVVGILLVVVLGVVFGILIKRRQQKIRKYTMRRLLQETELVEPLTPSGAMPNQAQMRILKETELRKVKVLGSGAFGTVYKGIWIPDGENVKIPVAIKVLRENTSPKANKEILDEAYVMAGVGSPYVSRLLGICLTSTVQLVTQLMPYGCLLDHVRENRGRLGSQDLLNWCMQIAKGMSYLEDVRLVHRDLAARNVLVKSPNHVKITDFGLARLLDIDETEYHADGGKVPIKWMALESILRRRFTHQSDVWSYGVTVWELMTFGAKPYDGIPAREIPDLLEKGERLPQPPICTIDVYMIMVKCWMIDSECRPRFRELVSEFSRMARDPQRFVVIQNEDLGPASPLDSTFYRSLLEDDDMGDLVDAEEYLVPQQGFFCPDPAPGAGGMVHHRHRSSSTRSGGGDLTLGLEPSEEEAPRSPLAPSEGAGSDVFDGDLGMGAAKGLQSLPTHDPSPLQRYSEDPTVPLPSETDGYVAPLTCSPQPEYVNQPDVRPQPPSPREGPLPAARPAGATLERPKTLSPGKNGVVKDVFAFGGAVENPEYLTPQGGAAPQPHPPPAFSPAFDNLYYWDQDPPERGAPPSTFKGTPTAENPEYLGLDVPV

`COc1cc(-c2cncc(-c3ccc(N4CCN(C)CC4)cc3)c2C)cc(F)c1C(N)=O` [Compound 26a, 2-Fluoro-6-methoxy-4-(4-methyl-5-(4-(4-methylpiperazin-1-yl)phenyl)pyridin-3-yl)benzamide]: the “% enzyme activity” value stood at 66.59% at MLCK2/MYLK2; 83.69% at CAMK2a; 99.76% at TYK1/LTK; 96.27% on PKCg; 98.77% at TSSK2. Besides, the remaining activity at 1 µM came out at 94.5% on KSR1; 97.1% on TTBK2; 89.7% on ERBB2/HER2; 105% on TNK1; 101% at PKMYT1. For the same molecule, the CYP inhibition on CYP3A4-Midazolam and on CYP2C9 was above 50 µM throughout.

On to `COc1cc(-c2cncc(-c3ccc(N4C[C@@H](C)N(C)[C@@H](C)C4)cc3)c2C)cc(F)c1C(N)=O` [Compound 26c, 2-Fluoro-6-methoxy-4-(4-methyl-5-(4-((3R,5S)-3,4,5-trimethylpiperazin-1-yl)phenyl)pyridin-3-yl)benzamide], for which the “% enzyme activity” value at MLCK2/MYLK2 was found to be 82.74%; on CAMK2a it was 93.72%; on TYK1/LTK, 99.99%; at PKCg it was 96.41%; at TSSK2, 99.71%. Further, the remaining activity at 1 µM at KSR1 is 96.3%; at TTBK2 it was 97.8%; on ERBB2/HER2, 96.8%; at TNK1, 98.6%; at PKMYT1, 94.5%. The CYP inhibition on CYP3A4-Midazolam and on CYP2C9 was above 50 µM throughout.

These data come from article PMC8213057, “Targeting ALK2: An Open Science Approach to Developing Therapeutics for the Treatment of Diffuse Intrinsic Pontine Glioma” (Journal of Medicinal Chemistry, 2020).
